From PubChem BioAssay (NCI)
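Compound exposure: 48 hours, 5 concentrations, 96-well plates. Abbreviation: GI50, concentration required for 50% inhibition of growth. The concentration for full growth arrest is given as TGI.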

Experiments:
Test in all cases: NCI-60 cell line screen, 48 h
[1] = test system: TK-10 renal
[2] = test system: MALME-3M melanoma
[3] = test system: UO-31 renal
[4] = test system: A498 renal
[5] = test system: NCI-H460 lung
[6] = test system: PC-3 prostate
[7] = test system: HCT-116 colon
[8] = test system: HOP-62 NSCLC
[9] = test system: K-562 leukemia
[10] = test system: MDA-MB-231 breast

| Compound | GI50 [1] | TGI [1] | GI50 [2] | TGI [2] | GI50 [3] | TGI [3] | GI50 [4] | TGI [4] | GI50 [5] | TGI [5] | GI50 [6] | TGI [6] | GI50 [7] | TGI [7] | GI50 [8] | TGI [8] | TGI [9] | GI50 [9] | GI50 [10] | TGI [10] |
| --- | --- | --- | --- | --- | --- | --- | --- | --- | --- | --- | --- | --- | --- | --- | --- | --- | --- | --- | --- | --- |
| Cc1nccc2c3ccc(OCc4cn(-c5ccc(Br)cc5)nn4)cc3n(CCCc3ccccc3)c12 | 1.62 µM | 3.29 µM | 1.62 µM | 3.57 µM | 1.41 µM | 3.01 µM | > 100 µM | > 100 µM | 3.03 µM | > 100 µM | 3.42 µM | > 100 µM | 7.2 µM | > 100 µM | 3.16 µM | 29.6 µM | – | – | – | – |
| CCCCCCCCCCCCCP(=O)(OC)OC | – | 31.6 µM | – | 38.3 µM | – | 29.8 µM | – | – | – | 31.3 µM | – | – | – | 33.8 µM | – | 28.2 µM | 45.2 µM | – | – | – |
| C=C1CCCC2OC(OC)CCC12 (configuration not stated) | – | > 100 µM | – | > 100 µM | – | > 100 µM | – | > 100 µM | – | > 100 µM | – | – | – | > 100 µM | – | > 100 µM | > 100 µM | – | – | – |
| CCCCCCCCC1C(C)c2c([nH]c3ccccc23)C2C(=O)N(c3ccccc3)C(=O)C21 (configuration not stated) | – | 37.1 µM | – | 39.1 µM | – | 28.5 µM | – | 36.9 µM | – | 12.9 µM | – | – | – | 12.5 µM | – | 38.3 µM | 14.7 µM | – | – | – |
| CSC(=NC(=O)c1ccccc1)SCCSC(=NC(=O)c1ccccc1)SC | – | > 100 µM | – | > 100 µM | – | > 100 µM | – | > 100 µM | – | > 100 µM | – | – | – | > 100 µM | – | > 100 µM | > 100 µM | – | – | – |
| NS(=O)(=O)c1ccc(-n2nc(-c3ccccc3)cc2-c2cc(O)ccc2O)cc1 | 35.9 µM | 95.2 µM | – | – | > 100 µM | > 100 µM | – | – | > 100 µM | > 100 µM | 77.6 µM | > 100 µM | 40.8 µM | > 100 µM | 90.8 µM | > 100 µM | > 100 µM | 40 µM | 25.6 µM | 72 µM |
| O=C(CO)CC(=O)C(=O)Nc1cccc(C(F)(F)F)c1 | – | > 100 µM | – | > 100 µM | – | > 100 µM | – | – | – | > 100 µM | – | – | – | > 100 µM | – | > 100 µM | > 100 µM | – | – | – |
| CCC1=CCC(P(=O)(c2ccccc2)c2ccccc2)CC1C (configuration not stated) | – | > 100 µM | – | > 100 µM | – | 60.5 µM | – | > 100 µM | – | > 100 µM | – | – | – | 63.8 µM | – | – | > 100 µM | – | – | – |
